Reference: paper PMC8721871 (Biochemistry, 2021)

Key:
Assay type in all cases: biochemical, Prescottella equi
Settings in all cases: 50 mM HEPES pH 7.5, 25 °C (Methods: 2.5 mM HEPES)
[1] = system: ReNHase (Fe-type nitrile hydratase); experiment: spectrophotometric, acrylamide formation at […] nm
[2] = system: ReNHase (Fe-type nitrile hydratase); experiment: spectrophotometric, 3-hydroxybenzamide formation at […] nm
[3] = system: ReNHase (Fe-type nitrile hydratase); experiment: spectrophotometric, acetamide formation at […] nm
[4] = system: ReNHase (Fe-type nitrile hydratase); experiment: spectrophotometric, benzamide formation at […] nm
[5] = system: ReNHase (Fe-type nitrile hydratase); experiment: spectrophotometric, […],4-dihydroxybenzamide formation at […] nm

SMILES: C=CC#N [acrylonitrile]
- Km (μM) [1]: 25 000 ± 11 000 μM

SMILES: N#Cc1cccc(O)c1 [3-hydroxybenzonitrile]
- Km [2]: 77 ± 17 µM

SMILES: CC#N [acetonitrile]
- Km (μM) [3]: 25 000 ± 2000 μM

SMILES: N#Cc1ccccc1 [benzonitrile]
- Km [4]: 13.2 ± 1.4 µM

SMILES: N#Cc1ccc(O)c(O)c1 [3,4-dihydroxybenzonitrile]
- Km [5]: 168 ± 21 µM
